Assays:
HIV-1 LAI = test: Protein binding analyses: anti-HIV activity in presence of serum proteins; format: cell-based; details: MT4 cells
Description: Human serum proteins like albumin (HSA) or α-1 acid glycoprotein (AAG) are known to bind many drugs, resulting in a possible decrease in the effectiveness of those compounds. In order to determine whether the present compounds would be adversely affected by this binding, the anti-HIV activity of the compounds was measured in the presence of human serum, thus evaluating the effect of the binding of the protease inhibitors to those proteins.
MT4 cells are infected with HIV-1 LAI at a multiplicity of infection (MOI) of 0.001-0.01 CCID50 (50% cell culture infective dose per cell, CCID50). After 1 h incubation, cells are washed and plated into a 96 well plate containing serial dilutions of the compound in the presence of 10% FCS (foetal calf serum), 10% FCS+1 mg/ml AAG (α1-acid glycoprotein), 10% FCS+45 mg/ml HSA (human serum albumin) or 50% human serum (HS). After 5 or 6 days incubation, the EC50 (50% effective concentration in cell-based assays) is calculated by determining the cell viability or by quantifying the level of HIV replication. Cell viability is measured using the assay described above. Into a 96 well plate containing serial dilutions of the compound in the presence of 10% FCS or 10% FCS+1 mg/ml AAG, HIV (wild type or resistant strain) and MT4 cells are added to a final concentration of 200-250 CCID50/well and 30,000 cells/well, respectively. After 5 days of incubation (37° C., 5% CO2), the viability of the cells is determined by the tetrazolium colorimetric MTT (3-[4,5-Dimethylthiazol-2-yl]-2,5-diphenyltetrazolium bromide) method (Pauwels et al. J Virol. Methods 1988, 20, 309-321).

[1] = test system: HIV strain F (clinically isolated, protease mutations); format: cell-based; details: FR=EC50(mutant strain F)/EC50(HIV-1 strain LAI)
Description: (§1) HIV- or mock-infected MT4 cells were incubated for five days in the presence of various concentrations of the inhibitor. […] Cell viability is measured by measuring the concentration of MTT, a yellow, water soluble tetrazolium dye that is converted to a purple, water insoluble formazan in the mitochondria of living cells only. Upon solubilization of the resulting formazan crystals with isopropanol, the absorbance of the solution is monitored at 540 nm. The values correlate directly to the number of living cells remaining in the culture at the completion of the five day incubation. The inhibitory activity of the compound was monitored on the virus-infected cells and was expressed as EC50 and EC90. These values represent the amount of the compound required to protect 50% and 90%, respectively, of the cells from the cytopathogenic effect of the virus. The toxicity of the compound was measured on the mock-infected cells and was expressed as CC50, which represents the concentration of compound required to inhibit the growth of the cells by 50%. The selectivity index (SI) (ratio CC50/EC50) is an indication of the selectivity of the anti-HIV activity of the inhibitor. Wherever results are reported as e.g. pEC50 or pCC50 values, the result is expressed as the negative logarithm of the result expressed as EC50 or CC50 respectively.
(§2) As a measure of the broad spectrum activity of the present compounds, the fold resistance (FR), defined as FR=EC50(mutant strain)/EC50(HIV-1 strain LAI), was determined.

[2] = test system: HIV strain D (clinically isolated, protease mutations); format: cell-based; details: FR=EC50(mutant strain D)/EC50(HIV-1 strain LAI)
Description: as §1, §2

[3] = test system: HIV strain B (clinically isolated, protease mutations); format: cell-based; details: FR=EC50(mutant strain B)/EC50(HIV-1 strain LAI)
Description: as §1, §2

[4] = test system: HIV strain A (clinically isolated, protease mutations); format: cell-based; details: FR=EC50(mutant strain A)/EC50(HIV-1 strain LAI)
Description: as §1, §2

[5] = test system: HIV strain C (clinically isolated, protease mutations); format: cell-based; details: FR=EC50(mutant strain C)/EC50(HIV-1 strain LAI)
Description: as §1, §2

[6] = test system: HIV strain E (clinically isolated, protease mutations); format: cell-based; details: FR=EC50(mutant strain E)/EC50(HIV-1 strain LAI)
Description: as §1, §2

mock-infected MT4 cells = test: in vitro
Description: as §1, §2

[7] = in vivo, ip, 20 mg/kg
Description: The compounds are formulated as a 20 mg/ml solution or suspension in DMSO, PEG400 or cyclodextin 40% in water. For most experiments in the rat (male and female rats), three dosing groups are formed: 1/single intraperitoneal (IP) dose at 20 mg/kg using the DMSO formulation; 2/single oral dose at 20 mg/kg using the PEG400 formulation and 3/single oral dose at 20 mg/kg using the cyclodextrin formulation. Blood is sampled at regular time intervals after dosing and drug concentrations in the serum are determined using a LC-MS bioanalytical method. Serum concentrations are expressed in […] after normalization to 10 mg/kg. Serum concentration at 30 minutes (30′) and at 3 hours (180′) can be determined as these values reflect the extent of absorption (30′) and the speed of elimination (180′). The rat serum concentration at 30 min and 180 min following IP administration of 20 mg/kg of compound 4 are 1098 ng/ml and 553 ng/ml respectively.

in vitro = details: human
Description: as §1, §2

| SMILES | Ratio of the EC50 compared to FCS (10%) (HIV-1 LAI; AAG 1 mg/ml (10% FCS+AAG)) | Ratio of the EC50 compared to FCS (10%) (HIV-1 LAI; FCS (10%)) | Ratio of the EC50 compared to FCS (10%) (HIV-1 LAI; HS 50% (human serum)) | Ratio of the EC50 compared to FCS (10%) (HIV-1 LAI; HSA 45 mg/ml (10% FCS+HSA)) | F (FR) fold resistance [1] | D (FR) fold resistance [2] | B (FR) fold resistance [3] | A (FR) fold resistance [4] | C (FR) fold resistance [5] | E (FR) fold resistance [6] | Tox (pCC50) (mock-infected MT4 cells) | rat serum concentration at 30 min [7] [ng/mL] | rat serum concentration at 180 min [7] [ng/mL] | CC50 at 5 days (in vitro) [µM] |
| --- | --- | --- | --- | --- | --- | --- | --- | --- | --- | --- | --- | --- | --- | --- |
| CC(=O)Nc1nc2ccc(S(=O)(=O)N(CC(C)C)C[C@@H](O)[C@H](Cc3ccccc3)NC(=O)O[C@H]3CO[C@H]4OCC[C@H]43)cc2o1 [Compound 1] | 25 | 1 | 15 | 6 | 0.71 | 0.72 | 0.80 | 0.63 | 0.50 | 0.40 | <4 | – | – | – |
| CC(C)CN(C[C@@H](O)[C@H](Cc1ccccc1)NC(=O)O[C@H]1CO[C@H]2OCC[C@H]21)S(=O)(=O)c1ccc2nc(NCCN3CCCC3)oc2c1 [Compound 4] | – | – | – | – | 3.2 | 0.47 | 1.62 | 1.95 | 1.70 | 0.50 | – | 1098 | 553 | – |
| CC(C)CN(C[C@@H](O)[C@H](Cc1ccccc1)NC(=O)OCc1cncs1)S(=O)(=O)c1ccc2nc(NC(=O)c3ccncc3)oc2c1 [Compound 10] | – | – | – | – | 20 | 3.9 | 10.83 | 3.9 | 1.1 | 1.3 | – | – | – | 53.7 |
